What all share (format): functional
For assay [1], the system named is Escherichia coli. The assay is described as follows: Antibacterial activity against Escherichia coli ATCC 25922 after 18 hrs by Mueller-Hinton broth microdilution method. As to conditions: ATCC 25922, 18 h. (In broth dilution the organism is exposed to a series of concentrations in liquid medium.)
Assay [2] relates to Enterococcus faecium. The assay is described as follows: Antibacterial activity against vancomycin-resistant Enterococcus faecium ATCC 700221 after 18 hrs by brain heart infusion broth microdilution method. The following applies: ATCC 700221, 18 h.
Assay [3] concerns Staphylococcus aureus. The assay is described as follows: Antibacterial activity against methicillin-resistant Staphylococcus aureus ATCC BAA41 after 18 hrs by cation adjusted Mueller-Hinton broth microdilution method. The following applies: ATCC BAA41, 18 h.
The subject of the next assay is Bacillus subtilis. The assay is described as follows: Antibacterial activity against Bacillus subtilis 168 after 18 hrs by Mueller-Hinton broth microdilution method. The following applies: subsp. subtilis str. 168, 18 h.
The subject of the next assay is Pseudomonas aeruginosa. The assay is described as follows: Antibacterial activity against multidrug-resistant Pseudomonas aeruginosa ATCC BAA2108 after 18 hrs by Mueller-Hinton broth microdilution method. As to conditions: ATCC BAA2108, 18 h.
The subject of assay [4] is Escherichia coli. The assay is described as follows: Antibacterial activity against Escherichia coli ATCC […] expressing NDM-1 beta-lactamase after 18 hrs by Mueller-Hinton broth microdilution method.
Assay [5] deals with Enterococcus faecium. The assay is described as follows: Antibacterial activity against antibiotic-susceptile Enterococcus faecium ATCC 49624 after 18 hrs by brain heart infusion broth microdilution method. The following applies: ATCC 49624, 18 h.
The subject of assay [6] is Staphylococcus aureus. The assay is described as follows: Antibacterial activity against Staphylococcus aureus ATCC 29213 after 18 hrs by cation adjusted Mueller-Hinton broth microdilution method. The following applies: ATCC 29213, 18 h.
Another assay has as its system Klebsiella pneumoniae. The assay is described as follows: Antibacterial activity against Klebsiella pneumoniae ATCC BAA2470 expressing NDM-1 beta-lactamase after 18 hrs by Mueller-Hinton broth microdilution method. As to conditions: ATCC BAA2470, 18 h.

As for `C[n+]1c2ccccc2c(Nc2ccc(Cl)cc2)c2[nH]c3ccccc3c21.[I-]`, the MIC against Escherichia coli [1] was 8 µg/mL; against Enterococcus faecium [2] it was 6 µg/mL; against Staphylococcus aureus [3] it was 4 µg/mL; with Bacillus subtilis, 4 µg/mL; against Pseudomonas aeruginosa, 64 µg/mL; in the assay on Escherichia coli [4] it was 8 µg/mL. Further, the MIC against Enterococcus faecium [5] came to 6 µg/mL; in the assay with Staphylococcus aureus [6] it was 4 µg/mL; with Klebsiella pneumoniae, 64 µg/mL.

On to `Cc1ccc(Nc2c3ccccc3[n+](C)c3c2[nH]c2ccccc23)cc1F.[I-]`, for which the MIC came out at 8 µg/mL in the assay on Escherichia coli [1]; 8 µg/mL in the assay on Enterococcus faecium [2]; 4 µg/mL in the assay with Staphylococcus aureus [3]; 4 µg/mL in the assay on Bacillus subtilis; 64 µg/mL in the assay with Pseudomonas aeruginosa; 8 µg/mL in the assay with Escherichia coli [4]. Also, the MIC in the assay on Enterococcus faecium [5] worked out at 8 µg/mL; in the assay with Staphylococcus aureus [6] it was 4 µg/mL; against Klebsiella pneumoniae, 64 µg/mL.

As to `C[n+]1c2ccccc2c(Nc2cccc(F)c2)c2[nH]c3ccccc3c21.[I-]`, the minimum inhibitory concentration (MIC) is 12 µg/mL against Escherichia coli [1]; 6 µg/mL against Enterococcus faecium [2]; 6 µg/mL in the assay with Staphylococcus aureus [3]; 6 µg/mL against Bacillus subtilis; greater than 64 µg/mL in the assay on Pseudomonas aeruginosa; 12 µg/mL in the assay with Escherichia coli [4]. Further, the MIC in the assay on Enterococcus faecium [5] is 6 µg/mL; in the assay with Staphylococcus aureus [6], 6 µg/mL; with Klebsiella pneumoniae it was greater than 64 µg/mL.

Consider `CCc1ccc(Nc2c3ccccc3[n+](C)c3c2[nH]c2ccccc23)cc1.[I-]`, for which the MIC against Escherichia coli [1] was 8 µg/mL; with Enterococcus faecium [2], 6 µg/mL; in the assay with Staphylococcus aureus [3], 4 µg/mL; against Bacillus subtilis, 4 µg/mL; with Pseudomonas aeruginosa, 64 µg/mL; with Escherichia coli [4] it was 8 µg/mL. Besides, the MIC in the assay on Enterococcus faecium [5] came out at 6 µg/mL; in the assay on Staphylococcus aureus [6] it was 4 µg/mL; with Klebsiella pneumoniae, 64 µg/mL.

For `Cc1ccc(Nc2c3ccccc3[n+](C)c3c2[nH]c2ccccc23)cc1.[I-]`, the MIC with Escherichia coli [1] turned out to be 8 µg/mL; against Enterococcus faecium [2], 6 µg/mL; in the assay on Staphylococcus aureus [3] it was 4 µg/mL; against Bacillus subtilis, 4 µg/mL; against Pseudomonas aeruginosa, 64 µg/mL; with Escherichia coli [4], 8 µg/mL. Also, the MIC came to 6 µg/mL with Enterococcus faecium [5], 4 µg/mL against Staphylococcus aureus [6] and 64 µg/mL against Klebsiella pneumoniae.

Turning to `COc1cccc(Nc2c3ccccc3[n+](C)c3c2[nH]c2ccccc23)c1.[I-]`, the MIC was 8 µg/mL against Escherichia coli [1]; 8 µg/mL with Enterococcus faecium [2]; 4 µg/mL against Staphylococcus aureus [3]; 4 µg/mL against Bacillus subtilis; greater than 64 µg/mL in the assay with Pseudomonas aeruginosa; 8 µg/mL in the assay on Escherichia coli [4]. The MIC was 8 µg/mL against Enterococcus faecium [5], 4 µg/mL against Staphylococcus aureus [6] and greater than 64 µg/mL against Klebsiella pneumoniae.

Take `C[n+]1c2ccccc2c(Nc2ccc(F)cc2F)c2oc3ccccc3c21.[I-]`: the MIC in the assay on Escherichia coli [1] was 12 µg/mL; in the assay with Enterococcus faecium [2], 8 µg/mL; in the assay with Staphylococcus aureus [3], 6 µg/mL; against Bacillus subtilis, 6 µg/mL; with Pseudomonas aeruginosa it was greater than 64 µg/mL; against Escherichia coli [4], 12 µg/mL. Also, the figures for the MIC with Enterococcus faecium [5], against Staphylococcus aureus [6] and against Klebsiella pneumoniae were 8 µg/mL, 6 µg/mL and greater than 64 µg/mL, respectively.

Take `Cc1ccccc1Nc1c2ccccc2[n+](C)c2c1[nH]c1ccccc12.[I-]`: the MIC against Escherichia coli [1] is 12 µg/mL; with Enterococcus faecium [2], 8 µg/mL; in the assay with Staphylococcus aureus [3] it was 6 µg/mL; against Bacillus subtilis it was 6 µg/mL; against Pseudomonas aeruginosa it was greater than 64 µg/mL; in the assay on Escherichia coli [4] it was 12 µg/mL. Also, the MIC against Enterococcus faecium [5] was 8 µg/mL; against Staphylococcus aureus [6] it was 6 µg/mL; with Klebsiella pneumoniae, greater than 64 µg/mL.

As to `C[n+]1c2ccccc2c(Nc2ccc(F)cc2)c2[nH]c3ccccc3c21.[I-]`, the MIC in the assay on Escherichia coli [1] turned out to be 8 µg/mL; against Enterococcus faecium [2], 8 µg/mL; against Staphylococcus aureus [3], 4 µg/mL; against Bacillus subtilis, 4 µg/mL; in the assay on Pseudomonas aeruginosa, 64 µg/mL; against Escherichia coli [4], 8 µg/mL. In addition, the MIC amounted to 8 µg/mL with Enterococcus faecium [5], 4 µg/mL against Staphylococcus aureus [6] and 64 µg/mL against Klebsiella pneumoniae.

The MIC is the least concentration at which growth counts as inhibited. A low value points to greater potency.

These data come from ChEMBL document CHEMBL4052617, “Antibacterial activity of N-methylbenzofuro[3,2-b]quinoline and N-methylbenzoindolo[3,2-b]-quinoline derivatives and study of their mode of action” (2017).
